In patent publication US9284325B2, “Spectinamides as anti-tuberculosis agents” (UNIVERSITY OF TENNESSEE RESEARCH FOUNDATION, priority 2009, dated 2016) one finds MIC data, which are given here for 11 compounds.

Structures can show the parent of a compound that is named as a salt.

Experiment [1] relates to Burkholderia cepacia ATCC 25416. Nature of the experiment: MIC determination by microbroth dilution. The experiment is classed as cell-based. Particulars: ATCC25416, read-out: MIC B. cepcia. On the technique in general: Dilution methods test growth across graded concentrations, often in twofold steps.
Experiment [2] has as its system B. anthracis Sterne 34F2. The experiment can be described thus: microbe, parasite or virus in culture. The experiment is classed as cell-based, Bacillus anthracis. As to conditions: Bacillus anthracis, STERNE34F2, read-out: MIC B. anthracis 34F2.
For experiment [3], the system named is Klebsiella pneumoniae ATCC 33495. The experiment can be described thus: MIC determination by microbroth dilution. The experiment is classed as cell-based. Particulars: ATCC33495.
Experiment [4] deals with Acinetobacter baumannii ATCC 19606. Nature of the experiment: MIC determination by microbroth dilution. The experiment is classed as cell-based. Particulars: ATCC19606.
The subject of experiment [5] is S. aureus 8325 or strain ATCC 29213. Nature of the experiment: MIC determination by microbroth dilution. The experiment is classed as cell-based, Staphylococcus aureus. As to conditions: Staphylococcus aureus, ATCC29213; S. aureus 8325 or strain ATCC 29213 (for 1471-1544).
Experiment [6] has as its system Strep. pyogenes ATCC 700294. The experiment can be described thus: MIC determination by microbroth dilution. The experiment is classed as cell-based, Streptococcus pyogenes. As to conditions: Streptococcus pyogenes, ATCC700294, read-out: MIC S. pyogenes.
In experiment [7] the test system is Proteus vulgaris ATCC 33420. The experiment can be described thus: MIC determination by microbroth dilution. The experiment is classed as cell-based. Particulars: ATCC33420.
Experiment [8] concerns Proteus mirabilis ATCC 25933. The experiment can be described thus: MIC determination by microbroth dilution. The experiment is classed as cell-based. As to conditions: ATCC25933.
The test system of experiment [9] is Strep. pneumoniae DAW27 or strain R6. The experiment can be described thus: MIC determination by microbroth dilution. The format is cell-based, Streptococcus pneumoniae. Particulars: Streptococcus pneumoniae; Strep. pneumoniae DAW27 or strain R6 (for 1443-1544); read-out: MIC S. pneumoniae.
The subject of experiment [10] is E. faecalis ATCC 33186. The experiment can be described thus: MIC determination by microbroth dilution. The experiment is classed as cell-based, Enterococcus faecalis. As to conditions: Enterococcus faecalis, ATCC33186.
For experiment [11], the system named is P. aeruginosa PAO1. The experiment can be described thus: MIC determination by microbroth dilution. The format is cell-based, Pseudomonas aeruginosa. Particulars: Pseudomonas aeruginosa.
Experiment [12] deals with E. coli K12. The experiment can be described thus: MIC determination by microbroth dilution. As to conditions: Escherichia coli, K12. The format is cell-based, Escherichia coli.
Experiment [13] has as its system Strenotrophomonas maltophilia ATCC 13637. The experiment can be described thus: MIC determination by microbroth dilution. The experiment is classed as cell-based.
Experiment [14] has as its system E. coli K12 ΔtolC. Nature of the experiment: microbe, parasite or virus in culture. The experiment is classed as cell-based. As to conditions: Escherichia coli, read-out: MIC E. coli K12 ΔtolC.
For experiment [15], the system named is M. tuberculosis H37Rv. The experiment can be described thus: MIC determination by microbroth dilution, anti-tuberculosis activity. The experiment is classed as cell-based, Mycobacterium tuberculosis. Particulars: Mycobacterium tuberculosis, H37RV, 168 h; read-out: MIC.

Consider `CN[C@@H]1[C@H](O)[C@H](NC)C2O[C@]3(O)C(OC2[C@H]1O)O[C@H](C)C[C@H]3NC(=O)Cc1ccc(C)cc1` (stereo partly drawn) [Compound 1399, 3′-Dihydro-3′-deoxy-4(R)-p-tolylacetylamino spectinomycin Dihydrochloride], for which the MIC in [1] was above 200 µg/mL; in experiment [2], 100 µg/mL; in experiment [3] it was above 200 µg/mL; in [4] it was above 200 µg/mL; in experiment [5], 50 µg/mL; in [6], 25 µg/mL. Further, the MIC in experiment [7] is above 200 µg/mL; in [8], above 200 µg/mL; in experiment [9], 25 µg/mL; in [10], 200 µg/mL; in [11], 100 µg/mL; in experiment [12], above 200 µg/mL. Moreover, the MIC is above 200 µg/mL in experiment [13], 100 µg/mL in [14] and 6.1 µg/mL in experiment [15].
As for `CN[C@@H]1[C@H](O)[C@H](NC)C2O[C@]3(O)C(OC2[C@H]1O)O[C@H](C)C[C@H]3NC(=O)Cc1cccc(OC)c1` (stereo partly drawn) [Compound 1400, 3′-Dihydro-3′-deoxy-4(R)-(3-methoxy-phenyl)acetylamino spectinomycin Dihydrochloride], the MIC is above 200 µg/mL in [1]; 200 µg/mL in experiment [2]; above 200 µg/mL in experiment [3]; above 200 µg/mL in [4]; above 200 µg/mL in [5]; above 200 µg/mL in [6]. The MIC was above 200 µg/mL in [7]; above 200 µg/mL in experiment [8]; 100 µg/mL in experiment [9]; 100 µg/mL in experiment [10]; 100 µg/mL in experiment [11]; above 200 µg/mL in experiment [12]. Further, the MIC in [13] is above 200 µg/mL; in experiment [14], above 200 µg/mL; in experiment [15] it was 12.5 µg/mL.
For the compound `CN[C@@H]1[C@H](O)[C@H](NC)C2O[C@]3(O)C(OC2[C@H]1O)O[C@H](C)C[C@H]3NC(=O)Cc1cccc(C)c1` (stereo partly drawn) [Compound 1412, 3′-Dihydro-3′-deoxy-4(R)-m-tolylacetylamino spectinomycin Dihydrochloride], the MIC in [1] was above 200 µg/mL; in experiment [2] it was 100 µg/mL; in experiment [3], above 200 µg/mL; in experiment [4], above 200 µg/mL; in experiment [5], 50 µg/mL; in experiment [6], 25 µg/mL. Further, the MIC in experiment [7] was above 200 µg/mL; in experiment [8], above 200 µg/mL; in experiment [9], 25 µg/mL; in [10] it was 200 µg/mL; in [11], 100 µg/mL; in experiment [12], above 200 µg/mL. For the same compound, the results for the MIC in [13], in experiment [14] and in experiment [15] were above 200 µg/mL, 200 µg/mL and 25 µg/mL, respectively.
For the compound `CN[C@@H]1[C@H](O)[C@H](NC)C2O[C@]3(O)C(OC2[C@H]1O)O[C@H](C)C[C@H]3NCC1CC1` (stereo partly drawn) [Compound 1419, 3′-Dihydro-3′-deoxy-4(R)-cyclopropylmethylamino spectinomycin Trihydrochloride], the MIC is above 200 µg/mL in experiment [1]; 50 µg/mL in experiment [2]; above 200 µg/mL in [3]; above 200 µg/mL in [4]; 100 µg/mL in experiment [5]; 50 µg/mL in [6]. The MIC was above 200 µg/mL in experiment [7]; above 200 µg/mL in [8]; 100 µg/mL in experiment [9]; 200 µg/mL in [10]; above 200 µg/mL in experiment [11]; 100 µg/mL in experiment [12]. Moreover, the MIC in [13] is above 200 µg/mL; in [14], 25 µg/mL; in experiment [15] it was 50 µg/mL.
For the compound `CN[C@@H]1[C@H](O)[C@H](NC)C2O[C@]3(O)C(OC2[C@H]1O)O[C@H](C)C[C@H]3NC(=O)Cc1cccnn1` (stereo partly drawn) [Compound 1449, 3′-Dihydro-3′-deoxy-4(R)-(pyridazin-3-yl)acetylamino spectinomycin tetra hydrobromide], the MIC in experiment [1] is above 200 µg/mL; in experiment [2] it was above 200 µg/mL; in experiment [3] it was above 200 µg/mL; in experiment [4] it was above 200 µg/mL; in experiment [5], above 200 µg/mL; in experiment [6], 200 µg/mL. Further, the MIC was above 200 µg/mL in experiment [7]; above 200 µg/mL in [8]; 25 µg/mL in [9]; above 200 µg/mL in [10]; above 200 µg/mL in experiment [11]; above 200 µg/mL in experiment [12]. The figures for the MIC in [13], in [14] and in experiment [15] were above 200 µg/mL, 100 µg/mL and 25 µg/mL, respectively.
In the case of `CN[C@@H]1[C@H](O)[C@H](NC)C2O[C@]3(O)C(OC2[C@H]1O)O[C@H](C)C[C@H]3NCCc1ccccc1` (stereo partly drawn) [Compound 1450, 3′-Dihydro-3′-deoxy-4(R)-2-phenylethylamino spectinomycin Trihydrochloride], in [15], the MIC amounted to 200 µg/mL.
Consider `CN[C@@H]1[C@H](O)[C@H](NC)C2O[C@]3(O)C(OC2[C@H]1O)O[C@H](C)C[C@H]3NC(=O)[C@H](C)N` (stereo partly drawn) [Compound 1467, 3′-Dihydro-3′-deoxy-4(R)-[2(S)-amino]propanoylamino spectinomycin Trihydrochloride], for which the MIC in [1] was above 200 µg/mL; in experiment [2], above 200 µg/mL; in experiment [3], above 200 µg/mL; in experiment [4], above 200 µg/mL; in experiment [5], above 200 µg/mL; in experiment [6] it was 50 µg/mL. Moreover, the MIC in experiment [7] is above 200 µg/mL; in [8], 200 µg/mL; in experiment [9], 50 µg/mL; in [10] it was above 200 µg/mL; in experiment [11], above 200 µg/mL; in experiment [12], 200 µg/mL. The results for the MIC in experiment [13], in experiment [14] and in experiment [15] were 100 µg/mL, 200 µg/mL and 200 µg/mL, respectively.
`CN[C@@H]1[C@H](O)[C@H](NC)C2O[C@]3(O)C(OC2[C@H]1O)O[C@H](C)C[C@H]3NC(=O)CCN` (stereo partly drawn) [Compound 1469, 3′-Dihydro-3′-deoxy-4(R)-(3-amino)propanoylamino spectinomycin Trihydrochloride]: the MIC in experiment [1] was above 200 µg/mL; in experiment [2], 50 µg/mL; in experiment [3], above 200 µg/mL; in [4], above 200 µg/mL; in [5] it was above 200 µg/mL; in experiment [6], 100 µg/mL. Also, the MIC was above 200 µg/mL in [7]; above 200 µg/mL in experiment [8]; 50 µg/mL in [9]; 50 µg/mL in experiment [10]; above 200 µg/mL in experiment [11]; above 200 µg/mL in experiment [12]. The MIC in experiment [13] amounted to 25 µg/mL; in experiment [14], 100 µg/mL; in experiment [15], 200 µg/mL.
For `CN[C@@H]1[C@H](O)[C@H](NC)C2O[C@]3(O)C(OC2[C@H]1O)O[C@H](C)C[C@H]3NC(=O)CN` (stereo partly drawn) [Compound 1470, 3′-Dihydro-3′-deoxy-4(R)-(2-amino)acetylamino spectinomycin Trihydrochloride], the MIC in [1], in experiment [2], in experiment [3], in experiment [4], in [5] and in experiment [6] was above 200 µg/mL throughout. The MIC in experiment [7], in experiment [8], in [9], in experiment [10], in experiment [11] and in experiment [12] was above 200 µg/mL throughout. Also, the MIC in experiment [13] is above 200 µg/mL; in [14], above 200 µg/mL; in [15], 200 µg/mL.
For `CC[C@H](C)[C@H](N)C(=O)N[C@@H]1C[C@@H](C)OC2OC3C(O[C@]21O)[C@@H](NC)[C@@H](O)[C@@H](NC)[C@@H]3O` (stereo partly drawn) [Compound 1485, 3′-Dihydro-3′-deoxy-4(R)-[(2S,3S)-2-amino,3-methyl]pentanoylamino spectinomycin Trihydrochloride], the MIC is above 200 µg/mL in experiment [1]; above 200 µg/mL in [2]; above 200 µg/mL in [3]; above 200 µg/mL in experiment [4]; above 200 µg/mL in experiment [5]; 25 µg/mL in experiment [6]. Besides, the MIC in experiment [7] is above 200 µg/mL; in experiment [8] it was above 200 µg/mL; in [9] it was 25 µg/mL; in experiment [10], above 200 µg/mL; in experiment [11] it was above 200 µg/mL; in experiment [13] it was above 200 µg/mL. The values for the MIC in [14] and in experiment [15] were above 200 µg/mL and 200 µg/mL, respectively.
Take `CN[C@@H]1[C@H](O)[C@H](NC)C2O[C@]3(O)C(OC2[C@H]1O)O[C@H](C)C[C@H]3NC(=O)[C@@H](N)C(C)C` (stereo partly drawn) [Compound 1486, 3′-Dihydro-3′-deoxy-4(R)-[2(S)-amino,3-methyl]butanoylamino spectinomycin Trihydrochloride]: the MIC in [1] was above 200 µg/mL; in [2], above 200 µg/mL; in experiment [3], above 200 µg/mL; in experiment [4] it was above 200 µg/mL; in experiment [5], above 200 µg/mL; in [6] it was 50 µg/mL. The MIC in [7], in experiment [8], in experiment [9], in experiment [10], in experiment [11] and in [13] was above 200 µg/mL in each case. For the same compound, the MIC is above 200 µg/mL in [14] and 200 µg/mL in [15].
